Measured values from patent US10689377B2 (Mirati Therapeutics, Inc., priority 2017, dated 2020).
Read-outs that look alike come from different tables or passages of the source.

Assays:
KRas G12C [1] = target: KRas G12C (Homo sapiens, UniProt P01116, G12C); assay: Cellular inhibition of KRas G12C measured by Phospho-ERK in NCI-H358 cells; format: cell-based; details: pERK(Thr202/Tyr204) normalized with GAPDH, NCI-H358 cells, 3 hours
How it was run: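 Ratio of phospho-ERK(Thr202/Tyr204) to GAPDH, read by near-infrared secondary antibodies on fixed, permeabilised NCI-H358 cells, expressed relative to DMSO control. Compound exposure was 3 h at 0.5% DMSO. IC50 values come from 4-parameter curve fits.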

KRas G12C [2] = target: KRas G12C (Homo sapiens, UniProt P01116, C118S/C51S/C80L/G12C); assay: KRas G12C Modification Assay (LCMS detection of covalent adduct); format: binding
Protocol: A 10 μL aliquot of each protein solution was then transferred to a 384 well microtiter plate. Initial compound stocks were generated at fifty times their desired final assay concentration in DMSO.
Exemplary compounds of Formula (I) were diluted 25-fold into K-Ras Assay Buffer to a final of two times their final concentration. A 10 μL aliquot of each diluted compound solution was then added to each of the protein solutions in the microtiter plate to initiate reaction. […] At each time point, the reactions were quenched with 20 μL of a 25 mM acetic acid solution. […] Once all reactions were quenched, the plates were heat sealed and the samples were injected into a LC/MS system for data acquisition.
Samples were injected in their liquid phase onto a C-3 reverse phase column to remove assay buffer and prepare the samples for mass spectrometer. The proteins were eluted from the column using an acetonitrile gradient and fed directly into the mass analyzer. Initial raw data analysis took place in Agilent MassHunter software immediately post data acquisition.
Raw data analysis of the intact protein was exclusively a deconvolution of the multiple charge states of each protein in solution using a maximum entropy deconvolution provided in Mass Hunter. To minimize complexity, only the data over limited mass ranges were considered for analysis, with a minimum of one Dalton mass step intervals. The heights of all masses identified during raw data analysis were exported to be further analyzed in Spotfire® data analysis software.
Final data analysis was a multistep process in the Spotfire® data analysis software package. Briefly, each protein mass was calculated as a percent of the total signal of that sample, that percentage was then normalized to the percentage of signal of the protein in the absence of reactive compounds. Those normalized signals were reported as normalized percent of control (POC). […] Key: “A”≤25% POC; “B”>25% POC-≤50% POC; “C”>50% POC and ND=not determined.

[3] = normalized percent of control, 5 μM concentration for 3 hours

| IC50 (KRas G12C [1]; read-out: IC50) [µM] | POC (KRas G12C [2]; [3]) | SMILES | POC (KRas G12C [2]; 5 µM) | IC50 (KRas G12C [1]) [µM] |
| --- | --- | --- | --- | --- |
| 0.0001 to 1 | C (“C”>50% POC) | C=CC(=O)N1CCN(c2nc(OC[C@@H]3CCCN3C)nc3c2CCN(c2cccc4ccc(C)cc24)C3)CC1CC#N (stereo partly drawn) [Example 245, 2-[4-[7-(7-methyl-1-naphthyl)-2-[[(2S)-1-methylpyrrolidin-2-yl]methoxy]-6,8-dihydro-5H-pyrido[3,4-d]pyrimidin-4-yl]-1-prop-2-enoyl-piperazin-2-yl]acetonitrile] |  |  |
| > 1 | C (“C”>50% POC) | C=CC(=O)N1CCN(c2nc(OC[C@@H]3CCCN3C)nc3c2CCN(c2c(C)c(C)cc4[nH]c(=O)[nH]c24)C3)CC1 [Example 456, 5,6-dimethyl-4-[2-[[(2S)-1-methylpyrrolidin-2-yl]methoxy]-4-(4-prop-2-enoylpiperazin-1-yl)-6,8-dihydro-5H-pyrido[3,4-d]pyrimidin-7-yl]-1,3-dihydrobenzimidazol-2-one] |  |  |
| 0.0001 to 1 | C (“C”>50% POC) | C=C(F)C(=O)N1CCN(c2nc(OC[C@@H]3CCN(C)C3)nc3c2CCN(c2cccc4cccc(C)c24)C3)C[C@@H]1CC#N [Example 562, 2-[(2S)-1-(2-Fluoroprop-2-enoyl)-4-[7-(8-methyl-1-naphthyl)-2-[[(3R)-1-methylpyrrolidin-3-yl]methoxy]-6,8-dihydro-5H-pyrido[3,4-d]pyrimidin-4-yl]piperazin-2-yl]acetonitrile] |  |  |
| 0.0001 to 1 | C (“C”>50% POC) | C=C(F)C(=O)N1CCN(c2nc(OC[C@@H]3CCCN3C)nc3c2CCN(c2c(C(F)(F)F)c(C)cc4[nH]ncc24)C3)C[C@@H]1CC#N [Example 555, 2-((S)-1-(2-Fluoroacryloyl)-4-(7-(6-methyl-5-(trifluoromethyl)-1H-indazol-4-yl)-2-(((S)-1-methylpyrrolidin-2-yl)methoxy)-5,6,7,8-tetrahydropyrido [3,4-d]pyrimidin-4-yl)piperazin-2-yl)acetonitrile] |  |  |
| 0.0001 to 1 | C (“C”>50% POC) | C=CC(=O)N1CCN(c2nc(OC[C@@H]3CCCN3C)nc3c2CCN(c2c(C)c(C)cc4[nH]ncc24)C3)C[C@@H]1CC#N [Example 462, 2-[(2S)-4-[7-(5,6-dimethyl-1H-indazol-4-yl)-2-[[(2S)-1-methylpyrrolidin-2-yl]methoxy]-6,8-dihydro-5H-pyrido[3,4-d]pyrimidin-4-yl]-1-prop-2-enoyl-piperazin-2-yl]acetonitrile] |  |  |
| 0.0001 to 1 | C (“C”>50% POC) | C=C(F)C(=O)N1CCN(c2nc(OC[C@@H]3CCCN3C)nc3c2CCN(c2cccc4cccc(C(F)(F)F)c24)C3)C[C@@H]1CC#N [Example 589, 2-((S)-1-(2-Fluoroacryloyl)-4-(2-(((S)-1-methylpyrrolidin-2-yl)methoxy)-7-(8-(trifluoromethyl)naphthalen-1-yl)-5,6,7,8-tetrahydropyrido[3,4-d]pyrimidin-4-yl)piperazin-2-yl)acetonitrile] |  |  |
| 0.0001 to 1 | C (“C”>50% POC) | CN1C[C@H](F)C[C@H]1COc1nc2c(c(N3CCN(C(=O)/C=C/CF)[C@@H](CC#N)C3)n1)CCN(c1cccc3cccc(Cl)c13)C2 [Example 582, 2-((S)-4-(7-(8-Chloronaphthalen-1-yl)-2-(((2S,4R)-4-fluoro-1-methylpyrrolidin-2-yl)methoxy)-5,6,7,8-tetrahydropyrido[3,4-d]pyrimidin-4-yl)-1-((E)-4-fluorobut-2-enoyl)piperazin-2-yl)acetonitrile] |  |  |
| 0.0001 to 1 | C (“C”>50% POC) | C=C(F)C(=O)N1CCN(c2nc(OC[C@@H]3CCCN3C)nc3c2CCN(c2cc(O)cc4ccccc24)C3)C[C@@H]1CC#N [Example 556, 2-[(2S)-1-(2-Fluoroprop-2-enoyl)-4-[7-(3-hydroxy-1-naphthyl)-2-[[(2S)-1-methylpyrrolidin-2-yl]methoxy]-6,8-dihydro-5H-pyrido[3,4-d]pyrimidin-4-yl]piperazin-2-yl]acetonitrile] |  |  |
| > 1 |  | C=CC(=O)N1CCN(c2nc(N3CCC(N(C)C)C3)nc3c2CCN(c2cc(O)cc4ccccc24)C3)CC1 (stereo not drawn) [Example 13, 1-(4-(2-(3-(dimethylamino)pyrrolidin-1-yl)-7-(3-hydroxynaphthalen-1-yl)-5,6,7,8-tetrahydropyrido[3,4-d]pyrimidin-4-yl)piperazin-1-yl)prop-2-en-1-one] |  |  |
| > 1 |  | C=CC(=O)N1CCN(c2nc(OCCN3CCC(OC)C3)nc3c2CCN(c2cc(O)cc4ccccc24)C3)CC1 (stereo not drawn) [Example 136, 1-[4-[7-(3-hydroxy-1-naphthyl)-2-[2-(3-methoxypyrrolidin-1-yl)ethoxy]-6,8-dihydro-5H-pyrido[3,4-d]pyrimidin-4-yl]piperazin-1-yl]prop-2-en-1-one] |  |  |
| > 1 |  | C=CC(=O)N1CC2(C1)CN(c1ncnc3c1CC(=O)N(c1cc(O)cc4ccccc14)C3)C2 [Example 114, 4-(6-acryloyl-2,6-diazaspiro[3.3]heptan-2-yl)-7-(3-hydroxynaphthalen-1-yl)-7,8-dihydropyrido[3,4-d]pyrimidin-6(5H)-one] |  |  |
| 0.0001 to 1 |  | C=CC(=O)N1CCN(c2nc(OC[C@@H]3CN(C)CCO3)nc3c2CCN(c2cccc4ccccc24)C3)CC1CC#N (stereo partly drawn) [Example 271, 2-(1-acryloyl-4-(2-(((S)-4-methylmorpholin-2-yl)methoxy)-7-(naphthalen-1-yl)-5,6,7,8-tetrahydropyrido[3,4-d]pyrimidin-4-yl)piperazin-2-yl)acetonitrile] |  |  |
| > 1 |  | C=CC(=O)N1[C@@H]2CC[C@H]1CN(c1nc(OC(C)CN(C)C)nc3c1CCN(c1cc(O)cc4ccccc14)C3)C2 (stereo partly drawn) [Example 45, 1-((1R,5S)-3-(2-((1-(dimethylamino)propan-2-yl)oxy)-7-(3-hydroxynaphthalen-1-yl)-5,6,7,8-tetrahydropyrido[3,4-d]pyrimidin-4-yl)-3,8-diazabicyclo[3.2.1]octan-8-yl)prop-2-en-1-one] |  |  |
| 0.0001 to 1 |  | C=CC(=O)N1CCN(c2nc(OC[C@@H]3CCN(C)C3)nc3c2CCN(c2cccc4cccc(Cl)c24)C3)C[C@@H]1CC#N [Example 361, 2-[(2S)-4-[7-(8-chloro-1-naphthyl)-2-[[(3R)-1-methylpyrrolidin-3-yl]methoxy]-6,8-dihydro-5H-pyrido[3,4-d]pyrimidin-4-yl]-1-prop-2-enoyl-piperazin-2-yl]acetonitrile] |  |  |
| > 1 |  | C=CC(=O)N1CCN(c2nc(OC[C@@H](O)CN3CCOCC3)nc3c2CCN(c2cc(O)cc4ccccc24)C3)CC1 (single isomer, unassigned) [Example 216] |  |  |

| SMILES | IC50 (KRas G12C [1]; read-out: IC50) [µM] | POC (KRas G12C [2]; [3]) | POC (KRas G12C [2]; 5 µM) | IC50 (KRas G12C [1]) [µM] |
| --- | --- | --- | --- | --- |
| C=CC(=O)N1CCN(c2nc(OC[C@@H]3CCCN3C)nc3c2CCN(c2c(C)ccc4[nH]ncc24)C3)CC1 [Example 155, (S)-1-(4-(7-(5-methyl-1H-indazol-4-yl)-2-((1-methylpyrrolidin-2-yl)methoxy)-5,6,7,8-tetrahydropyrido[3,4-d]pyrimidin-4-yl)piperazin-1-yl)prop-2-en-1-one] | 0.0001 to 1 |  | C (key: “A”≤25% POC; “B”>25% POC-≤50% POC; “C”>50% POC) |  |
| C=CC(=O)N1CCN(c2nc(OC[C@@H]3CCCN3C)nc3c2CCN(c2cccc4ccccc24)C3)C[C@@H]1CC#N [Example 234, 2-((S)-1-acryloyl-4-(2-(((S)-1-methylpyrrolidin-2-yl)methoxy)-7-(naphthalen-1-yl)-5,6,7,8-tetrahydropyrido[3,4-d]pyrimidin-4-yl)piperazin-2-yl)acetonitrile] | 0.0001 to 1 | C (“C”>50% POC) |  |  |
| C=CC(=O)N1CCN(c2nc(OC[C@]3(C)CCCN3C)nc3c2CCN(c2cccc4ccccc24)C3)CC1CC#N (stereo partly drawn) [Example 251, 2-(1-acryloyl-4-(2-(((S)-1,2-dimethylpyrrolidin-2-yl)methoxy)-7-(naphthalen-1-yl)-5,6,7,8-tetrahydropyrido[3,4-d]pyrimidin-4-yl)piperazin-2-yl)acetonitrile] |  | C (“C”>50% POC) |  | 0.0001 to 1 |
| C=CC(=O)N1CCN(c2nc(OC[C@@H]3C[C@@H](F)CN3C)nc3c2CCN(c2cccc4ccccc24)C3)CC1CC#N (stereo partly drawn) [Example 220, 2-(1-acryloyl-4-(2-(((2S,4R)-4-fluoro-1-methylpyrrolidin-2-yl)methoxy)-7-(naphthalen-1-yl)-5,6,7,8-tetrahydropyrido[3,4-d]pyrimidin-4-yl)piperazin-2-yl)acetonitrile] | 0.0001 to 1 | C (“C”>50% POC) |  |  |
| C=CC(=O)N1CCN(c2nc(OCCCN3CCOCC3)nc3c2CCN(c2cc(O)cc4sc(C)nc24)C3)CC1 [Example 166, 1-[4-[7-(6-hydroxy-2-methyl-1,3-benzothiazol-4-yl)-2-(3-morpholinopropoxy)-6,8-dihydro-5H-pyrido[3,4-d]pyrimidin-4-yl]piperazin-1-yl]prop-2-en-1-one] | > 1 |  | B (key: “A”≤25% POC; “B”>25% POC-≤50% POC; “C”>50% POC) |  |
